According to US10231954B2, “Neurodegenerative therapies” (LYTIX BIOPHARMA AS, priority 2014, dated 2019):

Legend:
Format in all cases: biochemical
ERK5 = ERK5 (Homo sapiens, UniProt Q13164); test: Kinase profiling ERK5; details: 100 micromolar inhibitor concentration, 100 is no change
Source text: (§1) Any value less that 25 is considered to be highly significant inhibition.

ULK1 = molecular target: T1, ULK1 (Homo sapiens, UniProt O75385); test: Kinase profiling ULK1; details: 100 micromolar inhibitor concentration, 100 is no change; for remaining activity at 100 µM: read-out: residual kinase activity, ULK1
T1 sequence (O75385 1-1050): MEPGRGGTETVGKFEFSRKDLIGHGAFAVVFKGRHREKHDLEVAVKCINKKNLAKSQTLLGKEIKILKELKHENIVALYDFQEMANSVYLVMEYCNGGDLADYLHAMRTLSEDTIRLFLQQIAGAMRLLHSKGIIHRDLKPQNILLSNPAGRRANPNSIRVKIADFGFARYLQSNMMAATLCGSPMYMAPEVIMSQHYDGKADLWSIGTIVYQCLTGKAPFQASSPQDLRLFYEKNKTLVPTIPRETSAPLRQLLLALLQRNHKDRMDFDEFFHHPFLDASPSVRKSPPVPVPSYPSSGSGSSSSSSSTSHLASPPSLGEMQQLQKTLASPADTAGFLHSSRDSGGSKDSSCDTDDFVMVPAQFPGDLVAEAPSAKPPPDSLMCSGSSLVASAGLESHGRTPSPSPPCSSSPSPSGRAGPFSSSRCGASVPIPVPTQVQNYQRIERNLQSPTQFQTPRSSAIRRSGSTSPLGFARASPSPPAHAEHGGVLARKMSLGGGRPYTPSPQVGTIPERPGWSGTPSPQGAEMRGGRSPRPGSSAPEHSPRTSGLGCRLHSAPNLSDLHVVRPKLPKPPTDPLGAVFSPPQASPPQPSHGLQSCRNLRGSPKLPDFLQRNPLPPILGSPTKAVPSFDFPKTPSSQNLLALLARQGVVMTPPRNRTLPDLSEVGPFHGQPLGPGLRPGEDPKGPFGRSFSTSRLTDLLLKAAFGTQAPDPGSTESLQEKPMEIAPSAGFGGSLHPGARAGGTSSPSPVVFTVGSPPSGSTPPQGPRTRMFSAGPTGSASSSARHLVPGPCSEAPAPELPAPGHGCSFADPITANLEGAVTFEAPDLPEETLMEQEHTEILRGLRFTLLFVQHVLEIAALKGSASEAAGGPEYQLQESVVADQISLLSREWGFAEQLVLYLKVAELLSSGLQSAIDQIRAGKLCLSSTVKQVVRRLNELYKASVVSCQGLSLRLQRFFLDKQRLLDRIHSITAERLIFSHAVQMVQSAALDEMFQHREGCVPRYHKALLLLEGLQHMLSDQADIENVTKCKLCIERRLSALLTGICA
Source text: as §1

MEKK1 = MEKK1 (Homo sapiens, UniProt Q13233); test: Kinase profiling MEKK1; details: 100 micromolar inhibitor concentration, 100 is no change; for remaining activity at 100 µM: read-out: residual kinase activity, MEKK1
Source text: as §1

ZAP70 = molecular target: T2, ZAP70 (Homo sapiens, UniProt P43403); test: Kinase profiling ZAP70; details: 100 micromolar inhibitor concentration, 100 is no change; for remaining activity at 100 µM: read-out: residual kinase activity, ZAP70
T2 sequence (P43403 1-619): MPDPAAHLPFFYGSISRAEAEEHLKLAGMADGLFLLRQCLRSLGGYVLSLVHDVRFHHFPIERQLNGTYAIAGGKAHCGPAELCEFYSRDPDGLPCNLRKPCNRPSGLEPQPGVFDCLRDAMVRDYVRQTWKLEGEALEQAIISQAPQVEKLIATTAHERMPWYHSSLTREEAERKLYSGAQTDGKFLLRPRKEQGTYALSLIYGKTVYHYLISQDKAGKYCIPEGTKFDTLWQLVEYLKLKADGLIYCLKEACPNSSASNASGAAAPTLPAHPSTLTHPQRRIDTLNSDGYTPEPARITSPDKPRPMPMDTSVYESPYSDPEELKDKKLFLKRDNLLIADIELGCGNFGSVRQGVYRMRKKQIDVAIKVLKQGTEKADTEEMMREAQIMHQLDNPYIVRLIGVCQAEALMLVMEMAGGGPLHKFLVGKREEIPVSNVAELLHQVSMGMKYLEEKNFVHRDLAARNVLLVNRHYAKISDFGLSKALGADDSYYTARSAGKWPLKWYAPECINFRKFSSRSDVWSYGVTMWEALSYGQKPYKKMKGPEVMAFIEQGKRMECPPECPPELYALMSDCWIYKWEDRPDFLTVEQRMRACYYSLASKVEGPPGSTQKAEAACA
Source text: as §1

SmMLCK = SmMLCK (Homo sapiens, UniProt Q15746); test: Kinase profiling SmMLCK; details: 100 micromolar inhibitor concentration, 100 is no change; for remaining activity at 100 µM: read-out: residual kinase activity, SmMLCK
DAPK1 = DAPK1 (Homo sapiens, UniProt P53355); test: Kinase profiling DAPK1; details: 100 micromolar inhibitor concentration, 100 is no change; for remaining activity at 100 µM: read-out: residual kinase activity, DAPK1
Source text: as §1

TIE2 = TIE2 (Homo sapiens, UniProt Q02763); test: Kinase profiling TIE2; details: 100 micromolar inhibitor concentration, 100 is no change; for remaining activity at 100 µM: read-out: residual kinase activity, TIE2
Source text: as §1

MAPKAP-K3 = MAPKAP-K3 (Homo sapiens, UniProt Q16644); test: Kinase profiling MAPKAP-K3; details: 100 micromolar inhibitor concentration, 100 is no change; for remaining activity at 100 µM: read-out: residual kinase activity, MAPKAP-K3
Source text: as §1

MARK3 = MARK3 (Homo sapiens, UniProt P27448); test: Kinase profiling MARK3; details: 100 micromolar inhibitor concentration, 100 is no change; for remaining activity at 100 µM: read-out: residual kinase activity, MARK3
Source text: as §1

HIPK3 = HIPK3 (Homo sapiens, UniProt Q9H422); test: Kinase profiling HIPK3; details: 100 micromolar inhibitor concentration, 100 is no change; for remaining activity at 100 µM: read-out: residual kinase activity, HIPK3
Source text: as §1

DYRK1A = DYRK1A (Homo sapiens, UniProt Q13627); test: DYRK 1A assay (kinase profiling); details: 100 micromolar inhibitor concentration, 100 is no change; for remaining activity at 100 µM: read-out: residual kinase activity, DYRK1A
Description: Assays are stopped by addition of 5 μl of 0.5 M (3%) orthophosphoric acid and then harvested onto P81 Unifilter plates with a wash buffer of 50 mM orthophosphoric acid.
as §1

EPH-A4 = EPH-A4 (Homo sapiens, UniProt P54764); test: Kinase profiling EPH-A4; details: 100 micromolar inhibitor concentration, 100 is no change; for remaining activity at 100 µM: read-out: residual kinase activity, EPH-A4
Source text: as §1

Lck = Lck (Homo sapiens, UniProt P06239); test: Kinase profiling Lck; details: 100 micromolar inhibitor concentration, 100 is no change; for remaining activity at 100 µM: read-out: residual kinase activity, Lck
Source text: as §1

p38a MAPK = p38a MAPK (Homo sapiens, UniProt Q16539); test: Kinase profiling p38a MAPK; details: 100 micromolar inhibitor concentration, 100 is no change; for remaining activity at 100 µM: read-out: residual kinase activity, p38a MAPK
Source text: as §1

TIE2, sequence (Q02763 23-1124, species assumed): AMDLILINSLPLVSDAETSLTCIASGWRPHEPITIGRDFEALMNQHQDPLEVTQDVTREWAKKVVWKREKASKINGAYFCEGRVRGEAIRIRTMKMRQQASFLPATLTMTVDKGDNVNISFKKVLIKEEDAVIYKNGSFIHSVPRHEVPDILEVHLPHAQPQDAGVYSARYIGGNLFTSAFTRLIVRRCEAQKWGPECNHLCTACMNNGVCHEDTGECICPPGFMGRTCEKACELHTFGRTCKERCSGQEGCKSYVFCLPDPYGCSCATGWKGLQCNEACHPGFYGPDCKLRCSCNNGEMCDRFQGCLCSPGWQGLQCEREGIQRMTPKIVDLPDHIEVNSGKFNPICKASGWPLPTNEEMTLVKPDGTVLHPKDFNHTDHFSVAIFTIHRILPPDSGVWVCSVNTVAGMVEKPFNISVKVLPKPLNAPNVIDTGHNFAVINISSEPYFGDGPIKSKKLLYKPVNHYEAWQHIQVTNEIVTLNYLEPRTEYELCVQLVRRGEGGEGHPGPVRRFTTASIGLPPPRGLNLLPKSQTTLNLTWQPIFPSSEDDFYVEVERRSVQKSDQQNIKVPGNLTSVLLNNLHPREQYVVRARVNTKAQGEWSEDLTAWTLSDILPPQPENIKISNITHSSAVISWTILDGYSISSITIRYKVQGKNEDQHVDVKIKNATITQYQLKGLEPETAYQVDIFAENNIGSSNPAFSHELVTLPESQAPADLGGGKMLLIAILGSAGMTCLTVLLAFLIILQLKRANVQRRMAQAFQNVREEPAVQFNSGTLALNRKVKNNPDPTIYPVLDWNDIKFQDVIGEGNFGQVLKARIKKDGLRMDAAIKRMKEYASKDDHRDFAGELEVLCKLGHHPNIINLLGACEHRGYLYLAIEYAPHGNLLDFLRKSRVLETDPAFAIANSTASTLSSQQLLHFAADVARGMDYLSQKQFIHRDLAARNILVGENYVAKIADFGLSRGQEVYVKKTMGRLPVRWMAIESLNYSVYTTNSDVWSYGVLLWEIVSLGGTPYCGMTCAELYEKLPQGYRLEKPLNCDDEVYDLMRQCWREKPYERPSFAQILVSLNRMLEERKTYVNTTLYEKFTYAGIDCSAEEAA
ERK5, sequence (Q13164 whole entry, species assumed): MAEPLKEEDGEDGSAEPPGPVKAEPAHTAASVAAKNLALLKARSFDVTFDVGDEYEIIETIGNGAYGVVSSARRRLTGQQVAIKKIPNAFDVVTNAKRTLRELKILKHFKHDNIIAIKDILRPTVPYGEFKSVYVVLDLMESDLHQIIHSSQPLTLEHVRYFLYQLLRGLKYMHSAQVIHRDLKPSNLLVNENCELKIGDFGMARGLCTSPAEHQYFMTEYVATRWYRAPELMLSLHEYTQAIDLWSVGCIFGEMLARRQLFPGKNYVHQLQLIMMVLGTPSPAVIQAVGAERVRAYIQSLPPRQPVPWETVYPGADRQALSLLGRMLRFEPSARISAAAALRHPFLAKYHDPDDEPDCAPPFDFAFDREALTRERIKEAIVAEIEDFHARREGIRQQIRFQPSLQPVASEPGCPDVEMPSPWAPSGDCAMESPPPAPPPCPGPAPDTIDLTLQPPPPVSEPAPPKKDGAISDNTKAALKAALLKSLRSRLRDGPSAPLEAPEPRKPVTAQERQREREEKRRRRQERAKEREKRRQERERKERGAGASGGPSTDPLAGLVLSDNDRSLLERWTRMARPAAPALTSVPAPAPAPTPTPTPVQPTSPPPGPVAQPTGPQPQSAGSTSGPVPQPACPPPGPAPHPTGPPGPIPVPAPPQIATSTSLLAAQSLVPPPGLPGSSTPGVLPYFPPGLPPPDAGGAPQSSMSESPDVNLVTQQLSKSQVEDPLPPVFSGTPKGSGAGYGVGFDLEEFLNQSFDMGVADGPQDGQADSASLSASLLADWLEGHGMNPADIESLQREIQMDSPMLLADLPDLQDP
MAPKAP-K3, sequence (Q16644 whole entry, species assumed): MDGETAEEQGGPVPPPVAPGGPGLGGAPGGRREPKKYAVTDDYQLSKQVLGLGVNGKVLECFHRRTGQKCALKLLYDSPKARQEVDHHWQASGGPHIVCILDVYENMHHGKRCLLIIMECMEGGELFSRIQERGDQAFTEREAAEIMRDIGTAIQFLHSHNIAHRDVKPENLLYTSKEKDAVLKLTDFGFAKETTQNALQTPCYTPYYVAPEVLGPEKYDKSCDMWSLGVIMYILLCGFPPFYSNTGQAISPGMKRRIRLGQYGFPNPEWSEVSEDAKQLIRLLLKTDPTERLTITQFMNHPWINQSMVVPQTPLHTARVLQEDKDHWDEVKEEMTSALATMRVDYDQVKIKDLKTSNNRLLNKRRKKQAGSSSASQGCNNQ
MARK3, sequence (P27448 whole entry, species assumed): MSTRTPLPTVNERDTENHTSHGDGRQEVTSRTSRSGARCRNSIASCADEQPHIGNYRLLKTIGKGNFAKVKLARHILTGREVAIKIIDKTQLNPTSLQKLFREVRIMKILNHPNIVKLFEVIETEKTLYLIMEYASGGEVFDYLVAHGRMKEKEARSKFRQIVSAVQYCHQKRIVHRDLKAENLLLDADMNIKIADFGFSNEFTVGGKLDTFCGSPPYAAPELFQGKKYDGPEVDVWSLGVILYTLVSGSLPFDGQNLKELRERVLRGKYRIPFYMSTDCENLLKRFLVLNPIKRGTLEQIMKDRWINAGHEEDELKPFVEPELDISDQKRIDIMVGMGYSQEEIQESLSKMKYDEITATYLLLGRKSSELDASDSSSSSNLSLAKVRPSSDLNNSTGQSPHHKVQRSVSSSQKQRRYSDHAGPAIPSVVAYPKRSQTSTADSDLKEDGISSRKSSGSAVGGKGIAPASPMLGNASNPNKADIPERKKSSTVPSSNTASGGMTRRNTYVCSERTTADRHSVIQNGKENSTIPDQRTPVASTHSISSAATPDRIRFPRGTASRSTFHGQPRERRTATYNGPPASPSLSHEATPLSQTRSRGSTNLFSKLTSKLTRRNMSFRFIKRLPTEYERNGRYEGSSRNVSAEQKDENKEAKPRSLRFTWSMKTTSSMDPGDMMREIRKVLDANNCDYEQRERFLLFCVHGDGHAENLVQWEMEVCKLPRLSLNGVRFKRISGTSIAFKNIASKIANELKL
SmMLCK, sequence (Q15746 923-1914): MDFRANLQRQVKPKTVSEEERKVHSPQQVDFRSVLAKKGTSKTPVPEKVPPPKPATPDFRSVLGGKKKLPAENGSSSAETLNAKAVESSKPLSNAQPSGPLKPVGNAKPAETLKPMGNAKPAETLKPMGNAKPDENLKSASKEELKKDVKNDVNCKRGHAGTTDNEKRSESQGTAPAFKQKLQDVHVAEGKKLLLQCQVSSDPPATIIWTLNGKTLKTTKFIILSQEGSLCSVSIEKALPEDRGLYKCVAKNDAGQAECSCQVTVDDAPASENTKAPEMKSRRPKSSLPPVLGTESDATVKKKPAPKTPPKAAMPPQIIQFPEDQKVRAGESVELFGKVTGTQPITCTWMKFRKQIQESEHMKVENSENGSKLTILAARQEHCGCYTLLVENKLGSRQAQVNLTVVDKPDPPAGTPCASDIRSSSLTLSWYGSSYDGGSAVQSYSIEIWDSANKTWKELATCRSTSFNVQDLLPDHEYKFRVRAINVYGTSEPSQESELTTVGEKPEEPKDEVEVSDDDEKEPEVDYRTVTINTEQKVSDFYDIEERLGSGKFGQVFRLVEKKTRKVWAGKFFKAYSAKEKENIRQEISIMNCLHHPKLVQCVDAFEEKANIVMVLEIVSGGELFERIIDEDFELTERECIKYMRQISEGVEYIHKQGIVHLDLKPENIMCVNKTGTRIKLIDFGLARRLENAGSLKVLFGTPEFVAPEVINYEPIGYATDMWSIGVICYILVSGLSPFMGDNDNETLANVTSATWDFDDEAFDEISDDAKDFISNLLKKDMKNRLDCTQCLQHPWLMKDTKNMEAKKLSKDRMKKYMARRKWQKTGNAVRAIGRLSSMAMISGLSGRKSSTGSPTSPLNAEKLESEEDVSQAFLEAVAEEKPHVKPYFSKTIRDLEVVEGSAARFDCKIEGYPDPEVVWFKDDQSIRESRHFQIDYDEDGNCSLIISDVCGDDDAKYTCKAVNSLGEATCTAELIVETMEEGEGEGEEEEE
p38a MAPK, sequence (Q16539 whole entry): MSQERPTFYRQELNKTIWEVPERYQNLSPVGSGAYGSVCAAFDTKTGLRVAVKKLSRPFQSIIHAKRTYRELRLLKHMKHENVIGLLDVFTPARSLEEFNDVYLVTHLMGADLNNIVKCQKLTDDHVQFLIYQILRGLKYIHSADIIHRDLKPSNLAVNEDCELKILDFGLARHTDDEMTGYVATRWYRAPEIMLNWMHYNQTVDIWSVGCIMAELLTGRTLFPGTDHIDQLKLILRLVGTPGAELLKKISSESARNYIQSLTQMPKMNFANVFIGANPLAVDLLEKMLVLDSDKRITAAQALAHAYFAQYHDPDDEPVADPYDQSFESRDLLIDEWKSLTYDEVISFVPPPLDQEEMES
Lck, sequence (P06239 whole entry, species assumed): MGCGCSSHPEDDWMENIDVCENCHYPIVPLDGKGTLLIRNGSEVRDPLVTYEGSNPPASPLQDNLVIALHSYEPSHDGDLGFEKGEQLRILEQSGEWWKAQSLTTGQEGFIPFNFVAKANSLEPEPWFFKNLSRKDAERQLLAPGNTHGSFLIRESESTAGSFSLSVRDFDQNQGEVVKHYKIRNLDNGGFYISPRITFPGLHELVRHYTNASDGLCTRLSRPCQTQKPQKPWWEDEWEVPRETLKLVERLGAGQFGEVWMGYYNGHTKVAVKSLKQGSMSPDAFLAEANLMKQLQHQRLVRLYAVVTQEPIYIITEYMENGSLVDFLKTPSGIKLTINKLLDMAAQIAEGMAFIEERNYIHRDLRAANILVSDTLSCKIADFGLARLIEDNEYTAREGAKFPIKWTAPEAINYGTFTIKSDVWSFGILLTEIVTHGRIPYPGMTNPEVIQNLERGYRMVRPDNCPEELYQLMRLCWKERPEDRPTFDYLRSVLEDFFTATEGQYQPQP

SMILES | residual kinase activity, ERK5 (ERK5) | residual kinase activity, ULK1 (ULK1) | residual kinase activity, MEKK1 (MEKK1) | residual kinase activity, ZAP70 (ZAP70) | residual kinase activity, SmMLCK (SmMLCK) | residual kinase activity, DAPK1 (DAPK1) | residual kinase activity, TIE2 (TIE2) | residual kinase activity, MAPKAP-K3 (MAPKAP-K3) | residual kinase activity, MARK3 (MARK3) | residual kinase activity, HIPK3 (HIPK3) | residual kinase activity, DYRK1A (DYRK1A) | residual kinase activity, EPH-A4 (EPH-A4) | residual kinase activity, Lck (Lck) | residual kinase activity, p38a MAPK (p38a MAPK) | remaining activity at 100 µM (ULK1) [%] | remaining activity at 100 µM (MEKK1) [%] | remaining activity at 100 µM (ZAP70) [%] | remaining activity at 100 µM (SmMLCK) [%] | remaining activity at 100 µM (DAPK1) [%] | remaining activity at 100 µM (TIE2) [%] | further results
O=C(Nc1nc2cc(O)ccc2s1)c1ccncc1 [Compound 03-11] | 58 | 90 | 106 | 89 | 63 | 62 | 84 | 68 | 75 | 106 | 50 | 91 | 93 | 106 |  |  |  |  |  |  | 
CC(=O)Nc1nc2cc(C)ccc2s1 [Compound 03-76] | 62 | 82 | 107 | 110 | 62 | 82 | 95 | 106 | 71 | 79 | 23 | 91 | 120 | 92 |  |  |  |  |  |  | 
CC(=O)Nc1nc2ccc(C(F)(F)F)cc2s1 [Compound 01-90] |  |  |  |  |  |  |  |  |  |  |  |  |  |  | 87 | 90 | 122 | 80 | 85 | 60 | remaining activity at 100 µM (MAPKAP-K3): 101%; remaining activity at 100 µM (MARK3): 61%; remaining activity at 100 µM (HIPK3): 69%; remaining activity at 100 µM (DYRK1A): 8%; remaining activity at 100 µM (EPH-A4): 45%; remaining activity at 100 µM (Lck): 53%; remaining activity at 100 µM (p38a MAPK): 106%
O=C(Nc1nc2ccc(O)cc2s1)c1ccccc1 [Compound 03-60] | 30 | 47 | 105 | 109 | 15 | 19 | 41 | 92 | 33 | 38 | 2 | 87 | 92 | 74 |  |  |  |  |  |  | 
CC(=O)Nc1nc2ccc(C#N)cc2s1 [Compound 01-94] |  |  |  |  |  |  |  |  |  |  |  |  |  |  | 92 | 94 | 118 | 54 | 41 | 85 | remaining activity at 100 µM (MAPKAP-K3): 101%; remaining activity at 100 µM (MARK3): 50%; remaining activity at 100 µM (HIPK3): 38%; remaining activity at 100 µM (DYRK1A): 9%; remaining activity at 100 µM (EPH-A4): 62%; remaining activity at 100 µM (Lck): 168%; remaining activity at 100 µM (p38a MAPK): 102%
COc1ccc2sc(NC(C)=O)nc2c1 [Compound 03-21] |  |  |  |  |  |  |  |  |  |  |  |  |  |  | 103 | 113 | 98 | 50 | 79 | 91 | remaining activity at 100 µM (ERK5; read-out: residual kinase activity, ERK5): 57%; remaining activity at 100 µM (MAPKAP-K3): 97%; remaining activity at 100 µM (MARK3): 72%; remaining activity at 100 µM (HIPK3): 86%; remaining activity at 100 µM (DYRK1A): 2%; remaining activity at 100 µM (EPH-A4): 98%; remaining activity at 100 µM (Lck): 109%; remaining activity at 100 µM (p38a MAPK): 96%
O=C(Nc1nc2ccc(O)cc2s1)c1ccncc1 [Compound 08-42] | 41 | 69 | 76 | 92 | 33 | 32 | 80 | 51 | 68 | 90 | 15 | 92 | 79 | 99 |  |  |  |  |  |  | 
